Assay results reported in US12077503B2, “Substituted cyclic amides and their use as herbicides” (FMC CORPORATION, priority 2015, dated 2024).
Read-outs that look alike come from different tables or passages of the source.

Key:
Format in all cases: in vivo
Kochia (Kochia scoparia) = experiment: Test A preemergence; details: Bassia scoparia, pre-emergence, 240 h; for pest or weed control at 125 g/ha: 125 g ai/ha, preemergence, 0 to 100 scale where 0 is no effect and 100 is complete control, read-out: Kochia plant response rating; for pest or weed control at 500 g/ha: 500 g ai/ha, Preemergence, visual injury vs untreated controls after approximately 10 d, read-out: Kochia plant response rating (0 to 100 scale where 0 is no effect and 100 is complete control)
Outline: (§1)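 Seeded soil received test chemicals as a preemergence directed spray, and seedlings at one to two leaves, 2–10 cm tall, received them postemergence, in a non-phytotoxic, surfactant-containing solvent mixture. Pots were held in a greenhouse for approximately 10 d, then rated for injury from 0, no effect, to 100, complete control.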

[1] = tested on: barnyardgrass (Echinochloa crus-galli); experiment: Test A preemergence; details: Echinochloa crus-galli, pre-emergence, 240 h; for pest or weed control at 125 g/ha: 125 g ai/ha, preemergence, 0 to 100 scale where 0 is no effect and 100 is complete control, read-out: Barnyardgrass plant response rating; for pest or weed control at 500 g/ha: 500 g ai/ha, Preemergence, visual injury vs untreated controls after approximately 10 d, read-out: Barnyardgrass plant response rating (0 to 100 scale where 0 is no effect and 100 is complete control)
Outline: as §1

[2] = tested on: giant foxtail (Setaria faberii); experiment: Test A preemergence; details: Setaria faberi, pre-emergence, 240 h; for pest or weed control at 125 g/ha: 125 g ai/ha, preemergence, 0 to 100 scale where 0 is no effect and 100 is complete control, read-out: Foxtail, Giant plant response rating; for pest or weed control at 500 g/ha: 500 g ai/ha, Preemergence, visual injury vs untreated controls after approximately 10 d, read-out: Foxtail, Giant plant response rating (0 to 100 scale where 0 is no effect and 100 is complete control)
Outline: as §1

[3] = tested on: pigweed (Amaranthus retroflexus); experiment: Test A preemergence; details: Amaranthus retroflexus, pre-emergence, 240 h; for pest or weed control at 125 g/ha: 125 g ai/ha, preemergence, 0 to 100 scale where 0 is no effect and 100 is complete control, read-out: Pigweed plant response rating; for pest or weed control at 500 g/ha: 500 g ai/ha, Preemergence, visual injury vs untreated controls after approximately 10 d, read-out: Pigweed plant response rating (0 to 100 scale where 0 is no effect and 100 is complete control)
[4] = tested on: ragweed (common ragweed, Ambrosia elatior); experiment: Test A preemergence; details: Ambrosia artemisiifolia, pre-emergence, 240 h; for pest or weed control at 125 g/ha: 125 g ai/ha, preemergence, 0 to 100 scale where 0 is no effect and 100 is complete control, read-out: Ragweed plant response rating; for pest or weed control at 500 g/ha: 500 g ai/ha, Preemergence, visual injury vs untreated controls after approximately 10 d, read-out: Ragweed plant response rating (0 to 100 scale where 0 is no effect and 100 is complete control)
Outline: as §1

[5] = tested on: ryegrass, Italian (Italian ryegrass, Lolium multiflorum); experiment: Test A preemergence; details: Lolium multiflorum, pre-emergence, 240 h; for pest or weed control at 125 g/ha: 125 g ai/ha, preemergence, 0 to 100 scale where 0 is no effect and 100 is complete control, read-out: Ryegrass, Italian plant response rating; for pest or weed control at 500 g/ha: 500 g ai/ha, Preemergence, visual injury vs untreated controls after approximately 10 d, read-out: Ryegrass, Italian plant response rating (0 to 100 scale where 0 is no effect and 100 is complete control)
Outline: as §1

[6] = tested on: blackgrass (Alopecurus myosuroides); experiment: Test A postemergence; details: Alopecurus myosuroides, post-emergence, 240 h, 125 g ai/ha
Outline: as §1

corn (Zea mays) = experiment: Test A postemergence; details: Zea mays, post-emergence, 240 h, 125 g ai/ha; for plant injury at 125 g/ha: postemergence, visual injury rating after approximately 10 d, read-out: Corn plant response rating (0 to 100 scale, 0 no effect, 100 complete control)
Outline: as §1

[7] = tested on: pigweed (Amaranthus retroflexus); experiment: Test A postemergence; details: Amaranthus retroflexus, post-emergence, 240 h, 125 g ai/ha
Outline: as §1

[8] = tested on: ragweed (common ragweed, Ambrosia elatior); experiment: Test A postemergence; details: Ambrosia artemisiifolia, post-emergence, 240 h, 125 g ai/ha
Outline: as §1

[9] = tested on: ryegrass, Italian (Italian ryegrass, Lolium multiflorum); experiment: Test A postemergence; details: Lolium multiflorum, post-emergence, 240 h, 125 g ai/ha
Outline: as §1

[10] = tested on: barnyardgrass (Echinochloa crus-galli); experiment: Test B flooded paddy test; details: Echinochloa crus-galli, Flood, 250 g ai/ha; scale of 0 to 100 where 0 is no effect and 100 is complete control; read-out: Barnyardgrass plant response rating
Outline: (§2)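 2-leaf plants; pots flooded 3 cm over soil; cpd added to paddy water; depth held; greenhouse 13–15 d; visual rating vs controls, 0 = no effect, 100 = complete control.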

[11] = tested on: ducksalad (Heteranthera limosa); experiment: Test B flooded paddy test; details: Heteranthera limosa, Flood, 250 g ai/ha; scale of 0 to 100 where 0 is no effect and 100 is complete control; read-out: Ducksalad plant response rating
Outline: as §2

rice (Oryra sativa) = experiment: Test B flooded paddy test; details: Oryza sativa, Flood, 250 g ai/ha; scale of 0 to 100 where 0 is no effect and 100 is complete control; read-out: Rice plant response rating
Outline: as §2

[12] = tested on: sedge, umbrella (small-flower umbrella sedge, Cyperus difformis); experiment: Test B flooded paddy test; details: Cyperus difformis, Flood, 250 g ai/ha; scale of 0 to 100 where 0 is no effect and 100 is complete control; read-out: Sedge, Umbrella plant response rating
Outline: as §2

[13] = postemergence, visual injury rating after approximately 10 d, read-out: Blackgrass plant response rating (0 to 100 scale, 0 no effect, 100 complete control)
[14] = postemergence, visual injury rating after approximately 10 d, read-out: Pigweed plant response rating (0 to 100 scale, 0 no effect, 100 complete control)
[15] = postemergence, visual injury rating after approximately 10 d, read-out: Ragweed plant response rating (0 to 100 scale, 0 no effect, 100 complete control)
[16] = postemergence, visual injury rating after approximately 10 d, read-out: Ryegrass, Italian plant response rating (0 to 100 scale, 0 no effect, 100 complete control)

| SMILES | pest or weed control at 125 g/ha (Kochia (Kochia scoparia)) [%] | pest or weed control at 500 g/ha (Kochia (Kochia scoparia)) [%] | pest or weed control at 125 g/ha [1] [%] | pest or weed control at 500 g/ha [1] [%] | pest or weed control at 125 g/ha [2] [%] | pest or weed control at 500 g/ha [2] [%] | pest or weed control at 125 g/ha [3] [%] | pest or weed control at 500 g/ha [3] [%] | pest or weed control at 125 g/ha [4] [%] | pest or weed control at 500 g/ha [4] [%] | pest or weed control at 125 g/ha [5] [%] | pest or weed control at 500 g/ha [5] [%] | pest or weed control at 250 g/ha [10] [%] | pest or weed control at 250 g/ha [11] [%] | pest or weed control at 250 g/ha (rice (Oryra sativa)) [%] | pest or weed control at 250 g/ha [12] [%] | pest or weed control at 125 g/ha [6, 13] [%] | plant injury at 125 g/ha (corn (Zea mays)) [%] | pest or weed control at 125 g/ha [7, 14] [%] | pest or weed control at 125 g/ha [8, 15] [%] | further results |
| --- | --- | --- | --- | --- | --- | --- | --- | --- | --- | --- | --- | --- | --- | --- | --- | --- | --- | --- | --- | --- | --- |
| CN1CC[C@H](c2ccc(F)cc2)[C@@H](C(=O)Nc2ccccc2F)C1=O [Compound 917] | 0 | 0 | 20 | 80 | 30 | 90 | 0 | 0 | 0 | 0 | 0 | 0 | 0 | 40 | 0 | 0 | – | – | – | – | pest or weed control at 125 g/ha ([6]; Postemergence, visual injury after approximately 10 d, 0 to 100 scale where 0 is no effect and 100 is complete control, read-out: Plant response rating, Blackgrass): 0%; Corn plant response rating (crop injury, 0 = no effect, 100 = complete kill) at 125 g/ha (corn (Zea mays); Postemergence, visual injury after approximately 10 d, 0 to 100 scale where 0 is no effect and 100 is complete control): 0%; pest or weed control at 125 g/ha ([7]; Postemergence, visual injury after approximately 10 d, 0 to 100 scale where 0 is no effect and 100 is complete control, read-out: Plant response rating, Pigweed): 0%; pest or weed control at 125 g/ha ([8]; Postemergence, visual injury after approximately 10 d, 0 to 100 scale where 0 is no effect and 100 is complete control, read-out: Plant response rating, Ragweed): 0%; pest or weed control at 125 g/ha ([9]; Postemergence, visual injury after approximately 10 d, 0 to 100 scale where 0 is no effect and 100 is complete control, read-out: Plant response rating, Ryegrass, Italian): 0% |
| Cc1c(F)ccc([C@H]2CN(C)C(=O)[C@@H]2C(=O)Nc2ccccc2C(F)(F)F)c1F [Compound 841] | 40 | 60 | 90 | 100 | 90 | 90 | 0 | 30 | 0 | 0 | 0 | 40 | 40 | 80 | 0 | 0 | 30 | 0 | 0 | 0 | pest or weed control at 125 g/ha [9, 16]: 20% |
| COc1c(F)ccc([C@H]2CNC(=O)[C@@H]2C(=O)Nc2ccccc2F)c1Cl [Compound 881] | 30 | 60 | 80 | 90 | 80 | 90 | 0 | 0 | 0 | 0 | 30 | 60 | 45 | 100 | 15 | 0 | 0 | 0 | 0 | 0 | pest or weed control at 125 g/ha [9, 16]: 30% |
| COc1cc([C@H]2CN(C)C(=O)[C@@H]2C(=O)Nc2ccccc2SC)cc(C(F)(F)F)c1 [Compound 857] | 0 | 30 | 90 | 90 | 80 | 90 | 60 | 70 | 0 | 30 | 40 | 60 | 60 | 80 | 0 | 80 | 30 | 40 | 30 | 0 | pest or weed control at 125 g/ha [9, 16]: 20% |
